Measurements published in patent publication US20030134848A1, “Substituted 1-aza-2-imino-heterocycles and their use as nicotinic acetylcholin receptors activators” (priority 2000, published 2003).
Read-outs that look alike come from different tables or passages of the source.

Columns and labels:
[1] = target: α1β1γδ subtype of nicotinic acetylcholine receptors (Rattus norvegicus, UniProt P18916+P25108+P25110); assay: biochemical; format: binding; conditions: for Ki: read-out: Affinities for receptors Ki α1β1γδ, rat muscle extract, [3H]-α-Bgt 1 nM
Excerpt: (§1) The methods for evaluating the binding capabilities of the compounds at nicotinic acetylcholine receptors are different by subtypes of receptors. The binding capabilities of the compounds at α4β2 nicotinic acetylcholine receptors are examined using rat brain membrane obtained from whole homogenized brain, and determining the inhibiting rate of the compounds against [^3H]-cytisine binding to said brain membrane. Furthermore, the binding capabilities of the compounds at α1β1γδ nicotinic acetylcholine receptors are examined using homogenized rat muscle, and determining the inhibiting rate of the compounds against [^3H]-α-bungarotoxin binding to said muscle homogenate.
The affinity of the compounds of the present invention to α1β1γδ subtype of nicotinic acetylcholine receptors was measured by the following method, which was modified method described by Garcha H. S., Thomas P., Spivak C. E., Wonnacott S. & Stolerman I. P., Psychropharmacology, 110, 347-354 (1993).
(1) Preparation of Rat Skeletal Muscles Containing α1β1γδ Subtype of Nicotinic Acetylcholine Receptors
The substantially same animals described in the Biological Experiment 1 were used.
The isolation of α1β1γδ subtype of nicotinic acetylcholine receptors was performed as follow. That is, rat posterior skeletal muscles were isolated just after sacrificed by decapitation, washed with ice-cooled saline solution and then frozen at −80° C. with liquid nitrogen and stored till using. After thawing the frozen muscles, tissue was homogenized (40% w/v) with buffer solution [2.5 mM of sodium phosphate buffer (pH:7.2), 90 mM of NaCl, 2 mM of KCl, 1 mM of EDTA, 2 mM of benzamidine, 0.1 mM of benzethonium chloride, 0.1 mM of PMSF, 0.01% of sodium azide] in Waring blender (Waring blender 34BL97; WARING PRODUCTS DIVISION DYNAMICS CORPORATION OF AMERICA) for 60 seconds. The homogenate were centrifuged under 20,000×G for 60 minutes at 4° C. The supernatant was separated and the resulting pellet was added to the same buffer (1.5 ml/g wet weight), and homogenized under the same conditions. Triton X100 (2% w/v) was added and the mixture was stirred for 3 hours at 4° C. The centrifugation at 100,000×G for 60 minutes at 4° C. yielded the rat muscle extract as supernatant. This was stored at 4° C. for up to 4 weeks, and used for binding assays at receptors.
(2) Experiments of α1β1γδ Subtype of Nicotinic Acetylcholine Receptors Binding
Receptors binding experiments were performed as follow. That is, the extract of rat muscle containing 600-900 μg of protein was added to test tubes containing test compounds and incubated for 15 minutes at 37° C. Then, to this mixture was added 1 nM of [^3H]-α-bungarotoxin (α-Bgt) and further incubated for 2 hours. The samples were isolated by vacuum filtration onto Whatman GF/B filters, which were prerinsed with 0.5% polyethylenimine just prior to sample filtration, using Brandel multi manifold cell harvester. The filters were rapidly rinsed with washing solution (10 mM of KH2PO4, 150 mM of NaCl, pH 7.2, room temperature) (5×1 ml). The filters were counted in 3 ml of clearsol I (Nacalai Tesque Inc.). The determination of nonspecific binding was incubated in the presence of 1 μM α-Bgt. The solutions containing α-Bgt (labeled/non-labeled) were prepared by using buffer solution containing 0.25% of BSA. In the receptor binding experiments, said buffer solution was added for adjusting the final concentration of BSA to be 0.05%.
The analyses of the experimental results were conducted by the same way as described in the Biological Experiment 1.

[2] = target: T1, α4β2 subtype of nicotinic acetylcholine receptors (Rattus norvegicus, UniProt P09483+P12390); assay: Binding assay at α4β2 subtype of nicotinic acetylcholine receptors ([3H]-cytisine, rat brain membrane)
T1 construct: rat brain membrane obtained from whole homogenized brain; from tissue; host or cells: whole brain of Fischer-344 male rats, membrane fraction
Excerpt: as §1
The affinity of the compounds of the present invention to α4β2 subtype of nicotinic acetylcholine receptors was performed by the following method, which was modified method described by Pabreza L. A., Dhawan S. & Kellar K. J., Mol. Pharm., 39, 9-12 (1990), and by Anderson D. J. & Arneric S. P., Eur. J. Pharm., 253, 261-267 (1994).
(1) Preparation of Rat Brain Membrane Containing α4β2 Subtype of Nicotinic Acetylcholine Receptors
Fischer-344 strain male rats (body weight: 200-240 g; 9 weeks old) obtained from Charles River Japan were used. Rats were housed in the breeding cage controlled of the room temperature at 23±1° C., and the humidity of 55±5% for 1 to 4 weeks. Rats (3 to 4 rats per a cage) were housed with lights on for 12 hours daily (from 7:00 to 19:00), and allowed free access to food and water.
Preparation of rat brain membrane containing α4β2 subtype of nicotinic acetylcholine receptors was performed as follow. That is, rat brains were isolated just after sacrificed by decapitation, washed with ice-cooled saline solution and then frozen at −80° C. with liquid nitrogen and stored till using. After thawing the frozen brain, the brain was homogenized in 10 volumes of ice-cooled buffer solution (50 mM of Tris-HCl, 120 mM of NaCl, 5 mM of KCl, 1 mM of MgCl2, 2 mM of CaCl2; pH 7.4; 4° C.) using homogenizer (HG30, Hitachi Kohki Ltd.) for 30 seconds, and the homogenate were centrifuged under 1,000×G for 10 minutes at 4° C. The resulting supernatant was separated and the pellet was homogenized again with half volume of aforementioned prior buffer solution and centrifuged under the same conditions. Combined supernatant was further centrifuged under 40,000×G for 20 minutes at 4° C. The pellet was suspended in buffer solution and used for binding assays at receptors.
(2) Experiments of α4β2 Subtype of Nicotinic Acetylcholine Receptors Binding
Suspensions of membrane pellets containing 400-600 μg of protein were added to test tubes containing test compounds and [^3H]-cytisine (2 nM) in a final volume of 200 μl and incubated for 75 minutes in ice-cooled bath. The samples were isolated by vacuum filtration onto Whatman GF/B filters, which were prerinsed with 0.5% polyethylenimine just prior to sample filtration, using Brandel multi manifold cell harvester. The filters were rapidly washed with buffer solution (3×1 ml). The filters were counted in 3 ml of clearsol I (Nacalai Tesque Inc.).
The analyses of the experimental results were conducted by using the Accufit Competition Program (Beckman Ltd.).

[3] = rat brain membrane, [3H]-cytisine 2 nM, read-out: Affinities for receptors Ki α4β2
[4] = read-out: control % of [3H]-α-Bgt binding

Chain of α1β1γδ subtype of nicotinic acetylcholine receptors (P25109 24-501): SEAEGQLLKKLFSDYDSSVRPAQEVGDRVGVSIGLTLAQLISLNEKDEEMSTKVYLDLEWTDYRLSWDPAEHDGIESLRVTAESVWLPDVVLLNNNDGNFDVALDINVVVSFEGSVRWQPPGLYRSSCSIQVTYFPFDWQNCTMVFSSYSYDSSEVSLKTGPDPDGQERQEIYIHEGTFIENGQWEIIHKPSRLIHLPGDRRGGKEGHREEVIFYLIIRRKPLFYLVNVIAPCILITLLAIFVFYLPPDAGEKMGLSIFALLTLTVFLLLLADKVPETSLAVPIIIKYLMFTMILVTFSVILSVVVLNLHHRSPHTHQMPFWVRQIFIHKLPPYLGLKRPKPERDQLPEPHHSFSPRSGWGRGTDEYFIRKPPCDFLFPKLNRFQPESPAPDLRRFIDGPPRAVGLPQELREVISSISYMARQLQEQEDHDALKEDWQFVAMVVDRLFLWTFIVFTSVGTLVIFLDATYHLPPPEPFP
Chain of α1β1γδ subtype of nicotinic acetylcholine receptors (P25110 22-517): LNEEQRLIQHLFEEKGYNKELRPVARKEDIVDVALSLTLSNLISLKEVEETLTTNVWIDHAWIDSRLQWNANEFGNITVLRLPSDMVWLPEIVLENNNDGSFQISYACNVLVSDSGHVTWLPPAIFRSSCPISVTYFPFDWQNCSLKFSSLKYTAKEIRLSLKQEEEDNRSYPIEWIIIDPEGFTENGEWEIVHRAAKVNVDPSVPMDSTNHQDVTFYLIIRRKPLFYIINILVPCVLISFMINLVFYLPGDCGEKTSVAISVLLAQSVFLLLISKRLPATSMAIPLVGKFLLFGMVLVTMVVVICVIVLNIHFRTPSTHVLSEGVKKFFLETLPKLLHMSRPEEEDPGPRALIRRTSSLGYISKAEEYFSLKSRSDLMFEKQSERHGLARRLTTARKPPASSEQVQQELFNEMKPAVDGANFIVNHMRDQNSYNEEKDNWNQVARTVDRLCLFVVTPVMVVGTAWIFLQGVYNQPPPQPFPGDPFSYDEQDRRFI
Chain of α1β1γδ subtype of nicotinic acetylcholine receptors (P25108 21-457): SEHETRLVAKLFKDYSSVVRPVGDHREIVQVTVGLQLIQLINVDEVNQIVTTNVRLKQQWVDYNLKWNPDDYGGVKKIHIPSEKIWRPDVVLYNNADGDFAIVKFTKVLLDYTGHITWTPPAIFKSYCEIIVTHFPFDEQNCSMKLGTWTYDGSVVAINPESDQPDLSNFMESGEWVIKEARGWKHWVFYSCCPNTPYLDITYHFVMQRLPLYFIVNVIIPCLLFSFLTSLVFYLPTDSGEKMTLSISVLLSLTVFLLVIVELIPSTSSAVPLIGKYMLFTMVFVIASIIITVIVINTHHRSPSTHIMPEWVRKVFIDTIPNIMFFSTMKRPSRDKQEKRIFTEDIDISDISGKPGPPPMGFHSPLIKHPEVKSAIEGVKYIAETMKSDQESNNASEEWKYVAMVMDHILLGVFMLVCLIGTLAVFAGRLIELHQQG
Chain of α1β1γδ subtype of nicotinic acetylcholine receptors (P18916 23-519): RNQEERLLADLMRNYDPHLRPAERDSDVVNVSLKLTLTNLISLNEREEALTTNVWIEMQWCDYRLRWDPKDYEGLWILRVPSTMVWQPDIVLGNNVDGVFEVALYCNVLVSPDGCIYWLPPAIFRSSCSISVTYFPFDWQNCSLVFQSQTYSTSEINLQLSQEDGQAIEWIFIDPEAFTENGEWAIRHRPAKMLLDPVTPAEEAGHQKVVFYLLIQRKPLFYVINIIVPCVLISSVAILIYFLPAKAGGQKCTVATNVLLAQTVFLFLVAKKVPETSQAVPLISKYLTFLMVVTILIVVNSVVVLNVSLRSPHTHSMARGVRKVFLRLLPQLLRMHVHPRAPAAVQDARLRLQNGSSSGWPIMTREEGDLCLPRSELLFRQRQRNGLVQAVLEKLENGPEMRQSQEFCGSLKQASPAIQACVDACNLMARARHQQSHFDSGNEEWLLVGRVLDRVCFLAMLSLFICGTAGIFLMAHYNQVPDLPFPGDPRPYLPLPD
T1 sequence (P09483 31-630): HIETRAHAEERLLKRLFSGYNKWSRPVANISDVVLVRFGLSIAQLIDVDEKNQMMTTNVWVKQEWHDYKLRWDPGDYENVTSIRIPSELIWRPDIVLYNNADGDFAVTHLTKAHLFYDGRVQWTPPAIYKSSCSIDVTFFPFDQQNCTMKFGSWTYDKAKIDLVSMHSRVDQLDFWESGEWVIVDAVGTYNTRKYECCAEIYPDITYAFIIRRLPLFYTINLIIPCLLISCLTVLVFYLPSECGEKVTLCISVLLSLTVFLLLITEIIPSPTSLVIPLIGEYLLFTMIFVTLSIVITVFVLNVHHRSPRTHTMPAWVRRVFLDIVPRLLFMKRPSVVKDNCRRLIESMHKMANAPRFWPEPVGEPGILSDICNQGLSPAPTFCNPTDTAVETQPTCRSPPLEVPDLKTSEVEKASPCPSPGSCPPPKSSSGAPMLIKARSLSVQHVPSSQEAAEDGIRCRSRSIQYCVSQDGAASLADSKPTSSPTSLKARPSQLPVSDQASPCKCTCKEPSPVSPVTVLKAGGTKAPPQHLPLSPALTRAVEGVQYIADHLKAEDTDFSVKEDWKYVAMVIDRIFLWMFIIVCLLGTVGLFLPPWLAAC
T1 sequence (P12390 25-500): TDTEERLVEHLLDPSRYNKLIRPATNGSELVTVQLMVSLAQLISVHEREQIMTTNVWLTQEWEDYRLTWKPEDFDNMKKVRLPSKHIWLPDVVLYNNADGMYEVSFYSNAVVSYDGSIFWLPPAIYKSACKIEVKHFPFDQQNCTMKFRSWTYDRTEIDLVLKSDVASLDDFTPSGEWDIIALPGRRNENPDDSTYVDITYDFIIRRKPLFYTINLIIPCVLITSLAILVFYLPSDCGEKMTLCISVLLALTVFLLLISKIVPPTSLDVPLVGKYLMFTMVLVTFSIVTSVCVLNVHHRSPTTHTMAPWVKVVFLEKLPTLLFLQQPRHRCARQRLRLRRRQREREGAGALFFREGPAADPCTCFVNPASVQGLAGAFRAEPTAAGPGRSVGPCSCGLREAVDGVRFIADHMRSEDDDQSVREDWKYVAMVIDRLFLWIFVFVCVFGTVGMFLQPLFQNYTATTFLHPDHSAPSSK

SMILES	Ki [1]	Ki [2, 3]	Ki [2]	further results
Cc1ccc(CCn2ccnc2N)cn1 [Compound 11, 2-amino-1-[2-(6-methyl-3-pyridyl)ethyl]imidazole]	1150 µM	0.021 µM	–	–
N=C1NCCCN1CCc1ccc(Cl)nc1 [Compound 12, 1-[2-(6-chloro-3-pyridyl)ethyl]-2-imino-1,2,3,4,5,6-hexahydro-pyrimidine]	12 µM	–	0.0014 µM	–
Nc1nccn1CCc1cnc(Cl)c(Cl)c1 [Compound 13, 2-amino-1-[2-(5,6-dichloro-3-pyridyl)ethyl]-imidazole]	40 µM	–	0.0031 µM	–
Nc1nccn1CCc1cccnc1 [Compound 14, 2-amino-1-[2-(3-pyridyl)ethyl]imidazole]	223 µM	0.0035 µM	–	–
Nc1nccn1CCc1cnc(Cl)s1 [Compound 23, 2-amino-1-[2-(2-chloro-5-thiazolyl)ethyl]imidazole]	44 µM	–	0.0085 µM	–
Nc1nccn1CCc1cncc(Br)c1 [Compound 25, 2-amino-1-[2-(5-bromo-3-pyridyl)ethyl]imidazole]	36 µM	0.002 µM	–	–
Cc1cncc(CCn2ccnc2N)c1 [Compound 27, 2-amino-1-[2-(5-methyl-3-pyridyl)ethyl]imidazole]	339 µM	0.021 µM	–	–
Nc1nccn1CCc1cncnc1 [Compound 29, 2-amino-1-[2-(5-pyrimidyl)ethyl]imidazole]	447 µM	–	0.006 µM	–
Nc1nccn1CCc1cccnn1 [Compound 30, 2-amino-1-[2-(3-pyridazinyl)ethyl]imidazole]	80 µM	0.04 µM	–	–
Nc1nccn1CCc1cnccn1 [Compound 31, 2-amino-1-[2-(2-pyrazinyl)ethyl]imidazole]	–	–	–	remaining activity at 100 µM [1, 4]: 110%; remaining activity at 1000 µM [1, 4]: 53%; remaining activity at 1 µM ([2]; 1 μM of test compound, rat brain membrane, read-out: control % of [3H]-cytisine binding): 75%; remaining activity at 10 µM ([2]; 10 μM of test compound, rat brain membrane, read-out: control % of [3H]-cytisine binding): 22%
Nc1nccn1CCc1ccnnc1 [Compound 34, 2-amino-1-[2-(4-pyridazinyl)ethyl]imidazole]	1270 µM	0.068 µM	–	–
